The test addresses T1, iNAP1.
T1 construct: gene rex; 6xHis N-terminal, E. coli BL21(DE3) pLys
In words: sensor fluorescence titration, excitation […] nm, emission […] nm. Conditions: 22 °C, in vitro, pseudocytosol medium pH 7.5, 0.5 μM sensor. The test is classed as binding.

Usually Kd stands for the concentration at which binding is half-saturated. A high value points to lower affinity. In turn, `NC(=O)C1=CN([C@@H]2O[C@H](COP(=O)(O)OP(=O)(O)OC[C@H]3O[C@@H](n4cnc5c(N)ncnc54)[C@H](OP(=O)(O)O)[C@@H]3O)[C@@H](O)[C@H]2O)C=CC1` [NADPH] gave a Kd of 300 nM.

For the origin of these results see article PMC7320160, “In planta study of photosynthesis and photorespiration using NADPH and NADH/NAD^+ fluorescent protein sensors” (Nature Communications, 2020).
